Experimental data published in PubChem BioAssay (NCI).
“And” between values parts separate entries of the source, which are not always exact repeats. Equal values may be shown once.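 Following 48 hours of exposure in 96-well plates, responses at five concentrations were used to interpolate endpoints linearly. GI50 is the concentration that inhibits growth by half. TGI is the concentration that stops growth completely.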

Columns and labels:
Assay in all cases: NCI anticancer screen, dose series, 48 h
M14 melanoma = system: M14 melanoma
UACC-257 melanoma = system: UACC-257 melanoma
SF-268 CNS = system: SF-268 CNS
PC-3 prostate = system: PC-3 prostate
LOX IMVI melanoma = system: LOX IMVI melanoma
ACHN renal = system: ACHN renal
SK-MEL-5 melanoma = system: SK-MEL-5 melanoma
RPMI-8226 leukemia = system: RPMI-8226 leukemia
NCI-H522 lung = system: NCI-H522 lung
IGROV1 ovarian = system: IGROV1 ovarian
NCI-H23 lung = system: NCI-H23 lung
OVCAR-3 ovarian = system: OVCAR-3 ovarian
MDA-MB-231 breast = system: MDA-MB-231 breast
SF-539 CNS = system: SF-539 CNS
NCI-H226 lung = system: NCI-H226 lung
KM12 colon = system: KM12 colon
BT-549 breast = system: BT-549 breast
SK-MEL-28 melanoma = system: SK-MEL-28 melanoma
MOLT-4 leukemia = system: MOLT-4 leukemia
HOP-92 NSCLC = system: HOP-92 NSCLC
HCC-2998 colon = system: HCC-2998 colon
TK-10 renal = system: TK-10 renal
SW-620 colon = system: SW-620 colon
MCF7 breast = system: MCF7 breast
OVCAR-4 ovarian = system: OVCAR-4 ovarian
U251 CNS = system: U251 CNS
HCT-15 colon = system: HCT-15 colon
HL-60(TB) leukemia = system: HL-60(TB) leukemia
MDA-MB-435 = system: MDA-MB-435
SF-295 CNS = system: SF-295 CNS
HT29 colon = system: HT29 colon
OVCAR-8 ovarian = system: OVCAR-8 ovarian
SNB-19 CNS = system: SNB-19 CNS
A498 renal = system: A498 renal
NCI/ADR-RES ovarian = system: NCI/ADR-RES ovarian
786-0 renal = system: 786-0 renal
HCT-116 colon = system: HCT-116 colon
CCRF-CEM leukemia = system: CCRF-CEM leukemia
NCI-H460 lung = system: NCI-H460 lung
SR leukemia = system: SR leukemia
A549 NSCLC = system: A549 NSCLC
UACC-62 melanoma = system: UACC-62 melanoma
K-562 leukemia = system: K-562 leukemia
UO-31 renal = system: UO-31 renal
HS 578T breast = system: HS 578T breast
OVCAR-5 ovarian = system: OVCAR-5 ovarian
DU-145 prostate = system: DU-145 prostate
RXF 393 renal = system: RXF 393 renal
EKVX NSCLC = system: EKVX NSCLC
SK-OV-3 ovarian = system: SK-OV-3 ovarian
COLO 205 colon = system: COLO 205 colon
SNB-75 CNS = system: SNB-75 CNS
SN12C renal = system: SN12C renal
HOP-62 NSCLC = system: HOP-62 NSCLC
SK-MEL-2 melanoma = system: SK-MEL-2 melanoma

COC(=O)C1CCC(NC(=O)c2csc([C@@H](C[C@H](C(C)C)N(C)C(=O)[C@@H](NC(=O)[C@H]3CCCCN3C)C(C)C)OC(C)=O)n2)CC1 (some centres not stated)
GI50 (M14 melanoma): 5.7 nM and 5.52 nM
TGI (M14 melanoma): 16.3 nM
GI50 (UACC-257 melanoma): > 33300 nM
TGI (UACC-257 melanoma): > 33300 nM
GI50 (SF-268 CNS): 9.2 nM and 19.7 nM
TGI (SF-268 CNS): > 33300 nM
GI50 (PC-3 prostate): 8.4 nM and 16.8 nM
TGI (PC-3 prostate): > 33300 nM
GI50 (LOX IMVI melanoma): 6.44 nM and 16.4 nM
TGI (LOX IMVI melanoma): > 33300 nM
GI50 (ACHN renal): 279 nM
TGI (ACHN renal): > 33300 nM
GI50 (SK-MEL-5 melanoma): 3.26 nM and 10.8 nM
TGI (SK-MEL-5 melanoma): 118 nM and 348 nM
GI50 (RPMI-8226 leukemia): 4.98 nM and 14.9 nM
TGI (RPMI-8226 leukemia): > 33300 nM
GI50 (NCI-H522 lung): 1.38 nM and 3.33 nM
TGI (NCI-H522 lung): 5.9 nM and 10.7 nM
GI50 (IGROV1 ovarian): 11.5 nM and 30.5 nM
TGI (IGROV1 ovarian): > 33300 nM
GI50 (NCI-H23 lung): 34.3 nM and 21.7 nM
TGI (NCI-H23 lung): > 33300 nM
GI50 (OVCAR-3 ovarian): 3.59 nM and 9.35 nM
TGI (OVCAR-3 ovarian): 29.4 nM
GI50 (MDA-MB-231 breast): 8.63 nM and 24 nM
GI50 (SF-539 CNS): 3.94 nM and 12.7 nM
TGI (SF-539 CNS): 63.7 nM and 151 nM
GI50 (NCI-H226 lung): 12.6 nM and 31.7 nM
TGI (NCI-H226 lung): > 33300 nM
GI50 (KM12 colon): 4.98 nM and 14 nM
TGI (KM12 colon): > 33300 nM
GI50 (BT-549 breast): 9.9 nM and 20 nM
TGI (BT-549 breast): 791 nM and 225 nM
GI50 (SK-MEL-28 melanoma): > 33300 nM
TGI (SK-MEL-28 melanoma): > 33300 nM
GI50 (MOLT-4 leukemia): 5.74 nM and 14.9 nM
TGI (MOLT-4 leukemia): > 33300 nM
GI50 (HOP-92 NSCLC): 15.3 nM
TGI (HOP-92 NSCLC): 6730 nM
GI50 (HCC-2998 colon): 32.5 nM and 99.4 nM
TGI (HCC-2998 colon): > 33300 nM
GI50 (TK-10 renal): 1050 nM
TGI (TK-10 renal): > 33300 nM
GI50 (SW-620 colon): 4.53 nM and 14.9 nM
TGI (SW-620 colon): > 33300 nM
GI50 (MCF7 breast): 3.09 nM and 12.1 nM
TGI (MCF7 breast): > 33300 nM
TGI (OVCAR-4 ovarian): > 33300 nM
GI50 (U251 CNS): 4.99 nM and 15.4 nM
TGI (U251 CNS): > 33300 nM
GI50 (HCT-15 colon): 18.5 nM and 53.6 nM
TGI (HCT-15 colon): > 33300 nM
GI50 (HL-60(TB) leukemia): 3 nM and 7.35 nM
TGI (HL-60(TB) leukemia): 13.6 nM and 18.1 nM
GI50 (MDA-MB-435): 0.404 nM and 3.33 nM
TGI (MDA-MB-435): 2.65 nM and 8.57 nM
GI50 (SF-295 CNS): 4.23 nM and 14.6 nM
TGI (SF-295 CNS): > 33300 nM
GI50 (HT29 colon): 3.43 nM and 10.4 nM
TGI (HT29 colon): 4200 nM
GI50 (OVCAR-8 ovarian): 11.4 nM and 26.6 nM
TGI (OVCAR-8 ovarian): > 33300 nM
GI50 (SNB-19 CNS): 4.7 nM and 15.2 nM
TGI (SNB-19 CNS): > 33300 nM
GI50 (A498 renal): 6.8 nM and 12.6 nM
TGI (A498 renal): 127 nM
GI50 (NCI/ADR-RES ovarian): 106 nM and 258 nM
TGI (NCI/ADR-RES ovarian): > 33300 nM
GI50 (786-0 renal): 7.42 nM and 14 nM
TGI (786-0 renal): > 33300 nM
GI50 (HCT-116 colon): 4.01 nM
GI50 (CCRF-CEM leukemia): 4.07 nM and 10.7 nM
TGI (CCRF-CEM leukemia): > 33300 nM
GI50 (NCI-H460 lung): 3.72 nM and 12 nM
TGI (NCI-H460 lung): > 33300 nM
GI50 (SR leukemia): 2.12 nM and 3.33 nM
TGI (SR leukemia): > 33300 nM
GI50 (A549 NSCLC): 8.59 nM and 21 nM
TGI (A549 NSCLC): > 33300 nM
GI50 (UACC-62 melanoma): 3.82 nM and 15.7 nM
TGI (UACC-62 melanoma): > 33300 nM
GI50 (K-562 leukemia): 2.56 nM and 7.66 nM
TGI (K-562 leukemia): > 33300 nM
GI50 (UO-31 renal): 68.4 nM and 303 nM
TGI (UO-31 renal): > 33300 nM
GI50 (HS 578T breast): 4.29 nM and 11.1 nM
TGI (HS 578T breast): > 33300 nM
GI50 (OVCAR-5 ovarian): 11.2 nM and 21.2 nM
TGI (OVCAR-5 ovarian): > 33300 nM
GI50 (DU-145 prostate): 4.06 nM and 9.67 nM
TGI (DU-145 prostate): 28.9 nM
GI50 (RXF 393 renal): 9.23 nM
TGI (RXF 393 renal): > 33300 nM
GI50 (EKVX NSCLC): 15.2 nM and 38.5 nM
TGI (EKVX NSCLC): > 33300 nM
GI50 (SK-OV-3 ovarian): 4.5 nM and 14.8 nM
TGI (SK-OV-3 ovarian): > 33300 nM
GI50 (COLO 205 colon): 3.59 nM and 12.1 nM
TGI (COLO 205 colon): 14.1 nM and 78.4 nM
GI50 (SNB-75 CNS): 3.07 nM and 11.9 nM
TGI (SNB-75 CNS): > 33300 nM
GI50 (SN12C renal): 6.74 nM and 22.5 nM
TGI (SN12C renal): > 33300 nM
GI50 (HOP-62 NSCLC): 5.19 nM and 16 nM
TGI (HOP-62 NSCLC): > 33300 nM
GI50 (SK-MEL-2 melanoma): 7.62 nM and 10.9 nM
TGI (SK-MEL-2 melanoma): > 33300 nM
